Reference: publication PMC4750701, “Role of Mitochondrial RNA Polymerase in the Toxicity of Nucleotide Inhibitors of Hepatitis C Virus” (Antimicrobial Agents and Chemotherapy, 2016)
Where two headings read alike, the source gives them in different places. Each block holds one compound with its values, some of them ahead of it.

What was measured:
RNA PolI = biological target: T1, RNA PolI (Rattus norvegicus, UniProt O54889); assay: RNA PolI inhibition assay; type: biochemical; details: NTP analogs 0 to 500 μM; read-out: Mean IC50 ± SD for RNA PolI
T1 construct: complexes were isolated from rat NSN1 cells and HeLa cells, respectively; made in house; host or cells: rat NSN1 cells expressing a FLAG-tagged Pol I subunit
T1 sequence (O54889 whole entry): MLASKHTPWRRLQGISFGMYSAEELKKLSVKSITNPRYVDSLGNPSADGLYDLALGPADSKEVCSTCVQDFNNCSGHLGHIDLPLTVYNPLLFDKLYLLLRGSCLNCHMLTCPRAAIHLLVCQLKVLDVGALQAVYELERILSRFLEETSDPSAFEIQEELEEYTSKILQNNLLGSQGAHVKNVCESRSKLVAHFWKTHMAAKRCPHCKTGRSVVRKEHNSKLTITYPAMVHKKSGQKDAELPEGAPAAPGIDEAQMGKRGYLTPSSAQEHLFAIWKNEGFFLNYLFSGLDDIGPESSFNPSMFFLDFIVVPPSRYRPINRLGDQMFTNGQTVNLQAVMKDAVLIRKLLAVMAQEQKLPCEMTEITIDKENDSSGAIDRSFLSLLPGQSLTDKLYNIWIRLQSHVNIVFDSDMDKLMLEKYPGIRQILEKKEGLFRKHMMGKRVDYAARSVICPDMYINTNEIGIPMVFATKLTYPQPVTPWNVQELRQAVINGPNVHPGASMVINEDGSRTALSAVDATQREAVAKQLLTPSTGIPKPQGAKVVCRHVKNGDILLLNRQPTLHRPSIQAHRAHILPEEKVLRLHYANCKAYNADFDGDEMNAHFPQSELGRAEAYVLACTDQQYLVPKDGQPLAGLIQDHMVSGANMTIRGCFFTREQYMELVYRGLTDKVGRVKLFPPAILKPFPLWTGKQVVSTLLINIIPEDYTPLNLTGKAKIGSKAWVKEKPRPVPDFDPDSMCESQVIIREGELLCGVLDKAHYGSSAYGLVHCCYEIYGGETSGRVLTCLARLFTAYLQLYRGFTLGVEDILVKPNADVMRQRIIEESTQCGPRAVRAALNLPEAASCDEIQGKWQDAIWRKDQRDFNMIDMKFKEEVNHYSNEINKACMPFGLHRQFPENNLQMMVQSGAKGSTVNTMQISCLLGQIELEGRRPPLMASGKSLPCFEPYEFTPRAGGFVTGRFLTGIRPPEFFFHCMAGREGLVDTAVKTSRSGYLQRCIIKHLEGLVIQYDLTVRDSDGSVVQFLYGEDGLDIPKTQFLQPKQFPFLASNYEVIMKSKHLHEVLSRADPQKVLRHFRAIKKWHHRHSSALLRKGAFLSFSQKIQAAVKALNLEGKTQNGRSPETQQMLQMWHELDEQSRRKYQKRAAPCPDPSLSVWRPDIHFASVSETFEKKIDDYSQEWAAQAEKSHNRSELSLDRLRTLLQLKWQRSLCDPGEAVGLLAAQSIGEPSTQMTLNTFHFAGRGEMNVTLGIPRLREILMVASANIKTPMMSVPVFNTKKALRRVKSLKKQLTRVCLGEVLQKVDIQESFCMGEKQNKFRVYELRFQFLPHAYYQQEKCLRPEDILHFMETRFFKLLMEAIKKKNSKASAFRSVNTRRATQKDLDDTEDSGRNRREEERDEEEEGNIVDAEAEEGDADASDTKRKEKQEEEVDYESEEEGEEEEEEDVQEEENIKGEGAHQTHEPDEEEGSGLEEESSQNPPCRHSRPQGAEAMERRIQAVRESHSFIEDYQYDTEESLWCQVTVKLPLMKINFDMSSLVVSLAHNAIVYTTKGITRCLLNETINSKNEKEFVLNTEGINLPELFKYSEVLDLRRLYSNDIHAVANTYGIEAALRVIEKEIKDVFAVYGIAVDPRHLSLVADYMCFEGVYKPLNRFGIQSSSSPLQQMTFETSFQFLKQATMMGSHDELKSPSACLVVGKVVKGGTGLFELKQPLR
Excerpt: (§1) Human DNA polymerase alpha, isolated from HeLa cell extracts, was from CHIMERx (Madison, WI). Recombinant human DNA polymerase beta, expressed in E. coli, was a gift from Zucai Suo at The Ohio State University. Recombinant human DNA polymerase gamma (including both the large subunit and the small subunit) was cloned, expressed, and purified from insect cells by Gilead Sciences (Foster City, CA) ([13]). RNA PolII was purchased as part of the HeLaScribe nuclear extract in vitro transcription system kit from Promega (Madison, WI). The recombinant human PolRMT and the transcription factors mitochondrial transcription factor A (mtTFA) and B2 (mtTFB2) were purchased from Enzymax (Lexington, KY). FLAG epitope-tagged RNA PolI and PolIII complexes were isolated from rat NSN1 cells and HeLa cells, respectively ([17], [18]). The inhibition of DNA polymerases alpha, beta, and gamma, PolRMT, and PolII and the rate of single-nucleotide incorporation by PolRMT have been described previously in detail ([12], [13], [19]). Inhibition of RNA PolI and PolIII was studied using published methods ([20], [21]). All concentrations were final unless noted otherwise. For the RNA PolI inhibition assay, a reaction mixture containing 50 mM HEPES (pH 7.9), 20% glycerol, 100 mM KCl, 1 mM dithiothreitol (DTT), 50 μg/ml calf thymus DNA, 4 mM MgCl2, 5 or 80 μM UTP (0.25 μl of [5,6-^3H]UTP, >25 Ci/mmol; PerkinElmer), 1 mM noncompeting NTP, competing NTP (5 μM for GTP, CTP, and UTP and 25 μM for ATP), and various concentrations (0 to 500 μM) of NTP analogs was preincubated at 30°C for 5 min. […] After incubation at 30°C for 20 min to 1 h, the reactions were terminated by pipetting the mixtures onto DEAE-cellulose discs (DE81; Whatman), and the products analyzed as described previously ([20], [21]).

RNA PolII = biological target: T2, RNA PolII (Homo sapiens, UniProt P24928+P30876); assay: Inhibition of RNA PolII (HeLaScribe nuclear extract transcription); type: biochemical; details: nucleotide analogs (Table 6); read-out: Mean IC50 ± SD for RNA PolII
T2 construct: purchased as part of the HeLaScribe nuclear extract in vitro transcription system kit; purchased Promega (Madison, WI); host or cells: HeLa nuclear extract (endogenous enzyme)
Excerpt: (§2) Activated fish sperm DNA was purchased from USB/Affymetrix (Santa Clara, CA) and used as a template for the DNA polymerases alpha, beta, and gamma. The DNA template used in the RNA Pol II assay was a 1,188-bp restriction fragment containing the cytomegalovirus (CMV) immediate early promoter (Promega, Madison, WI). The RNA and DNA oligonucleotides used in the mitochondrial RNA polymerase assay (see Table S1 in the supplemental material) were synthesized and PAGE purified by Thermo Scientific/Dharmacon (Lafayette, CO). RNA primer R12 was 5′-^32P-phosphorylated with [γ-^32P]ATP (3,000 Ci/mmol) and T4 kinase (New England BioLabs, Ipswich, MA).
as §1

RNA PolIII = biological target: T3, RNA PolIII (Homo sapiens, UniProt O14802+Q9NW08); assay: RNA PolIII inhibition assay; type: biochemical; details: competing NTP 100 μM CTP and GTP, 500 μM ATP; read-out: Mean IC50 ± SD for RNA PolIII
T3 construct: complexes were isolated from rat NSN1 cells and HeLa cells, respectively; made in house; host or cells: HeLa cells expressing a FLAG-tagged Pol III subunit
Excerpt: as §1
The RNA PolIII inhibition assay was conducted in a similar manner, except that the concentrations of the competing NTP were modified to 100 μM for CTP and GTP and 500 μM for ATP to compensate for the low assay signal at lower NTP concentrations.

recombinant human PolRMT = biological target: T4, recombinant human PolRMT (Homo sapiens, UniProt O00411); assay: Inhibition of PolRMT-catalyzed RNA synthesis; type: biochemical; details: read-out: Mean IC50 ± SD for PolRMT
T4 construct: purchased Enzymax (Lexington, KY)
T4 sequence (O00411 42-1230): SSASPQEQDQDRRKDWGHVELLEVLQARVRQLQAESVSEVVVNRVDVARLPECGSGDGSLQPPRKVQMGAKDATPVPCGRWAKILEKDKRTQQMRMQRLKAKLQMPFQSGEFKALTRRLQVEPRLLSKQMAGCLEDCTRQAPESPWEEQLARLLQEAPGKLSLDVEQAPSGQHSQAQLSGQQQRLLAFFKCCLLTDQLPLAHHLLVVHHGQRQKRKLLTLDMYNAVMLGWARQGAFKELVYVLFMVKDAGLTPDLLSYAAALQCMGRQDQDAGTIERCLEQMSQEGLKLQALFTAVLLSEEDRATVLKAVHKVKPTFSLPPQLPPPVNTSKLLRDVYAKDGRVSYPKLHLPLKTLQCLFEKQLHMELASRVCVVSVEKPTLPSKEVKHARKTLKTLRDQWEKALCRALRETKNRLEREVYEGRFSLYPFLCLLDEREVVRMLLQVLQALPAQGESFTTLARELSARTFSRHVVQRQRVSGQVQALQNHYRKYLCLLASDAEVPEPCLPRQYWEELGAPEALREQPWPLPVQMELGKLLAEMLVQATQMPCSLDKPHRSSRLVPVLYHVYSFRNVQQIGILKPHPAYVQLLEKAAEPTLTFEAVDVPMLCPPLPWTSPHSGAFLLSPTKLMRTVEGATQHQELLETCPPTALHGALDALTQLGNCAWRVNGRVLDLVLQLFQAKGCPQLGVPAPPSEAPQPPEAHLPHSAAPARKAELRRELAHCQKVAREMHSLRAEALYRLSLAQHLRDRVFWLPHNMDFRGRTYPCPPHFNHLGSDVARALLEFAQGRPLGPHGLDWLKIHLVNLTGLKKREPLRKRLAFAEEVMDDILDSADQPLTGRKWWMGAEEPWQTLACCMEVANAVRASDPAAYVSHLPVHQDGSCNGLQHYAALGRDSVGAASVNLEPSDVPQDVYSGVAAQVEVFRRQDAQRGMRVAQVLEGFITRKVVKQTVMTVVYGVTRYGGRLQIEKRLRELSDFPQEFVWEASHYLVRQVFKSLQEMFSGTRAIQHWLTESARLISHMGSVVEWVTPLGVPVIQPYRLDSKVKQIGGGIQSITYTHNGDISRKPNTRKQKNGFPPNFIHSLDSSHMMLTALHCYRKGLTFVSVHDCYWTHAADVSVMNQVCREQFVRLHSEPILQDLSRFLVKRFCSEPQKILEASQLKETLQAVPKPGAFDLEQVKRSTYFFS
Excerpt: as §2, with “The DNA template used in the RNA Pol II assay was a 1,188-bp restriction fragment containing the cytomegalovirus (CMV) immediate early promoter (Promega, Madison, WI).” left out
as §1, with “otherwise.” for “otherwise. For the RNA PolI inhibition assay, a reaction mixture containing 50 mM HEPES (pH 7.9), 20% glycerol, 100 mM KCl, 1 mM dithiothreitol (DTT), 50 μg/ml calf thymus DNA, 4 mM MgCl2, 5 or 80 μM UTP (0.25 μl of [5,6-^3H]UTP, >25 Ci/mmol; PerkinElmer), 1 mM noncompeting NTP, competing NTP (5 μM for GTP, CTP, and UTP and 25 μM for ATP), and various concentrations (0 to 500 μM) of NTP analogs was preincubated at 30°C for 5 min.”

[1] = tested on: RNA transcription products from PolI (preribosome), PolII (myc), and PolRMT (ATP6) in PC-3 cells; assay: RNA transcripts in PC-3 cells by RT-PCR; type: cell-based, human; details: 5 μM, 1-day treatment
Description: CX-5461, a known specific RNA PolI inhibitor, was used as the positive control ([25]). The growth medium was aspirated and replaced with 200 μl of 100 μM BMS-986094, 5 μM CX-5461, or DMSO control prepared in growth medium. At selected time points (0.5, 1, 4, 8, and 24 h), duplicate wells of the compounds and DMSO control were aspirated, the cells were washed 1× with PBS (pH 7.4), and 100 μl of RNA lysis buffer was added (Promega, Sunnyvale, CA). RNA was purified using the Wizard SV 96 total RNA isolation kit (Promega) and eluted in 100 μl of nuclease-free water. The TaqMan RNA-to-Ct 1-step kit (ABI/Life Technologies) was used for reverse transcription-quantitative PCR (RT-qPCR) amplification and quantification, using the 7900HT Fast real-time PCR system (ABI) under the following conditions: 15 min at 48°C for reverse transcription and 10 min at 95°C for activation, followed by 40 cycles of 15 s at 95°C for denaturation and 1 min at 60°C for annealing and extension. […] Transcripts were quantified relative to the standard curves, and the results expressed as the percentages of the average value of DMSO control wells.

[2] = tested on: nuclear DNA-encoded succinate dehydrogenase (SDH-A; complex II) protein level; assay: Nuclear protein synthesis (SDH-A, MitoBiogenesis in-cell ELISA) in PC-3 cells; type: cell-based, human; details: human, read-out: Mean CC50 ± SD causing General cellular toxicity: Protein synthesis
Description: (§3) PC-3 cells were treated with the compounds for 5 days and analyzed with the MitoTox MitoBiogenesis in-cell enzyme-linked immunosorbent assay (ELISA) kit (MitoSciences/Abcam, Eugene, Oregon) as described previously ([13]). The assay uses quantitative immunocytochemistry to measure the protein levels of nuclear DNA-encoded succinate dehydrogenase (SDH-A; complex II [succinate dehydrogenase]) and mitochondrial DNA-encoded cytochrome c oxidase (COX-1; complex IV [cytochrome c oxidase]) in cultured cells.

[3] = Bone marrow erythroid progenitor colony assay, 14 days; type: cell-based, human; details: human, human bone marrow erythroid progenitors, read-out: Mean CC50 ± SD in Bone marrow cells Erythroid
[4] = tested on: mitochondrial DNA-encoded cytochrome c oxidase (COX-1); assay: Mitochondrial protein synthesis assay (COX-1, MitoBiogenesis in-cell ELISA) in PC-3 cells; type: cell-based, human; details: PC-3 cells, 5-day treatments
Description: as §3

[5] = tested on: mitochondrial DNA-encoded cytochrome c oxidase (COX-1; complex IV) protein level; assay: as above; type: cell-based, human; details: human; PC-3 cells, COX-1, 5 days; read-out: Mean CC50 ± SD causing Mitochondrial toxicity: Protein synthesis
Description: as §3

[6] = Bone marrow myeloid progenitor colony assay, 14 days; type: cell-based, human; details: human, human bone marrow myeloid progenitors, read-out: Mean CC50 ± SD in Bone marrow cells Myeloid
[7] = Cytotoxicity in Huh7 cells, 5-day treatment (CellTiter Glo); details: human, Huh-7 cells
Description: (§4) All cells were cultured at 37°C in a 5% CO2 incubator with 90% humidity unless noted otherwise. […] All cells were treated with the various compounds for 5 days, except for human erythroid and myeloid progenitors, which were treated for 14 days. After the incubation period, cell viability was measured by the addition of CellTiter Glo viability reagents (Promega, Madison, WI). The luminescence signal was quantified on an Envision luminescence plate reader (PerkinElmer, Waltham, MA) after incubation of the reagents and cells for 10 min at room temperature. […] CC50 values were calculated as the average of the results of three or four independent experiments.
Cell Culture and Cytotoxicity Studies
(§5) The Huh-7 cells were maintained in growth medium containing Dulbecco's Modified Eagle
(§6) Medium (DMEM, Cellgro) supplemented with 1% Nonessential Amino Acids (NEAA, Cellgro,
(§7) Manassas, VA), 10% fetal bovine serum (FBS, HyClone, Logan, UT) and 1% Penicillin-
(§8) streptomycin-glutamate (PSG, Invitrogen, Carlsbad, CA). The cells were passaged twice weekly
(§9) and maintained at 90% confluence densities.
(§10) The HepG2 cells were maintained in Eagle’s Minimum Essential Medium (EMEM) from ATCC
(§11) (Manassas, VA) supplemented with 10% FBS, 100 units/mL penicillin and 100 µg/mL
(§12) streptomycin (P/S) (Gibco). The cells were passaged twice weekly and maintained at 90%
(§13) The PC-3 cells were maintained in Kaighn’s F12 medium (Gibco, Carlsbad, CA) supplemented
(§14) with 10% FBS (HyClone, Logan, UT), 100 units/mL penicillin and 100 µg/mL streptomycin
(§15) (P/S) (Gibco). The cells were passaged twice weekly and maintained at 90% confluence. Cells
(§16) between passages 4 and 15 were used in the assays.
(§17) The fibroblast cell line MRC-5 cell line derived from normal lung tissue, was purchased from
(§18) ATCC (Manassas, VA) and cultured in Minimum Essential Medium (MEM) (Cellgro, Manassas,
(§19) VA) supplemented with 10% FBS (HyClone, Logan, UT) and 1% PSG (Invitrogen). The cells
(§20) were passaged twice weekly and maintained at 90% confluence densities.

[8] = Cytotoxicity in primary rat neonatal cardiomyocytes, 5 days; type: cell-based; details: Sprague Dawley, primary rat neonatal cardiomyocytes, 5-day treatment, read-out: CC50 (mean ± standard deviation) in primary rat cardiomyocytes
[9] = tested on: mitochondrial spare respiratory capacity; assay: Oxygen consumption rate / spare respiratory capacity in PC-3 cells; details: human, PC-3 cells, pH 7.4
[10] = tested on: mitochondrial spare respiratory capacity in PC-3 cells; assay: as above; details: PC-3 cells, 3-day treatments
[11] = Cytotoxicity in stimulated PBMCs, 5 days; details: human, stimulated PBMCs
Description: Human peripheral blood mononuclear cells (PBMCs) were isolated from human buffy coats obtained from healthy volunteers (Stanford Blood Bank, Palo Alto, CA) using standard Ficoll separation and stimulated as described elsewhere ([13]) and were tested at both quiescent and stimulated stages. Quiescent PBMCs were stimulated with 10 units per ml of recombinant human interleukin 2 (hIL-2) and 1 μg per ml phytohemagglutinin P (PHA-P) for 48 h prior to drug treatment.
as §4
Human peripheral blood mononuclear cells (PBMCs) were isolated from human buffy coats
obtained from normal healthy volunteers (Stanford Medical School Blood Center, Palo Alto,
CA). Total PBMCs were isolated from buffy coats using standard Ficoll separation and sterile
cellular isolation techniques performed in a bio-safety cabinet (1). Except where noted, the
procedure was carried out at room temperature. The final PBMCs pellet was resuspended in
Logan, UT), penicillin 100 units/mL and streptomycin 100 µg/mL (Gibco). For quiescent
PBMCs cultures, total cells were seeded in 96-well plates at a density of 1 x 10^6 cells per well, followed by immediate drug treatment. Stimulated PBMCs cultures were set up by seeding the freshly isolated PBMCs in T-175cm2 tissue culture flasks in 100 mL of RPMI containing the same components as the ones used for the quiescent PBMCs but with the addition of 10 units per mL of recombinant human interleukin-2 (hIL-2, Roche, Indianapolis, IN), and 1 µg per mL phytohemagglutinin-P (PHA-P, Sigma-Aldrich, St. Louis, MO) at density of 2  10^6 cells per mL for 48 hours at 37C in a 5% CO2 incubator with 90% humidity, prior to drug treatment.

[12] = Cytotoxicity / ATP level in PC-3 cells, 5-day treatment; details: human, PC-3 cells
Description: as §4
Cell Culture and Cytotoxicity Studies
as §5, §6, §7, §8, §9, §10, §11, §12, §13, §14, §15, §16, §17, §18, §19, §20

[13] = Cytotoxicity in quiescent PBMCs, 5 days; details: human, quiescent PBMCs
[14] = Cytotoxicity in primary human hepatocytes, 5 days; details: human, primary human hepatocytes
Description: (§21) Primary human hepatocytes were from Bioreclamation IVT (Westbury, NY) or Life Technologies (Carlsbad, CA).
as §4

[15] = Cytotoxicity in MT-4 T-cells, 5-day treatment; details: human, MT-4 cells
Description: as §21, §4

[16] = Cytotoxicity in MRC5 fibroblasts, 5-day treatment; details: human, MRC5 fibroblasts
Description: as §4
Cell Culture and Cytotoxicity Studies
as §5, §6, §7, §8, §9, §10, §11, §12, §13, §14, §15, §16, §17, §18, §19, §20

[17] = Cytotoxicity in HepG2 (galactose) cells, 5-day treatment; details: human, HepG2 cells (galactose)
Description: as §4
Cell Culture and Cytotoxicity Studies
as §5, §6, §7, §8, §9, §10, §11, §12, §13, §14, §15, §16, §17, §18, §19, §20

IC50 (RNA PolI): 690000 ± 230000 nM
IC50 (RNA PolII): > 500000 nM
IC50 (RNA PolIII): > 500000 nM
IC50 (recombinant human PolRMT; nucleotide analogs (Table 6)): 240000 ± 30000 nM
Structure (SMILES): C[C@@]1(O)[C@H](O)[C@@H](COP(=O)(O)OP(=O)(O)OP(=O)(O)O)O[C@H]1n1ccc(=O)[nH]c1=O [2′CMeUTP]

IC50 (RNA PolI): 25000 ± 2000 nM
IC50 (RNA PolII): > 500000 nM
IC50 (RNA PolIII): 104000 ± 20000 nM
IC50 (recombinant human PolRMT; nucleotide analogs (Table 6)): 4200 ± 1400 nM
IC50 (recombinant human PolRMT; triphosphate form of the compound tested (Table 4)): 4200 ± 1400 nM
Structure (SMILES): Nc1nc2c(ncn2[C@@H]2O[C@H](COP(=O)(O)OP(=O)(O)OP(=O)(O)O)C[C@H]2O)c(=O)[nH]1 [3′deoxyGTP]

Structure (SMILES): Cc1cnc(CNC(=O)c2c(=O)c3ccc(N4CCCN(C)CC4)nc3n3c2sc2ccccc23)cn1 [CX-5461]
relative levels of RNA transcripts (pre-rRNA, myc, mitochondrial ATP6) [1]: selectively decreased pre-rRNA but had no effect on the levels of myc and mitochondrial ATP6 RNAs

Structure (SMILES): COc1ccc(C[C@H](N)C(=O)N[C@H]2[C@@H](O)[C@H](n3cnc4c(N(C)C)ncnc43)O[C@@H]2CO)cc1 [Puromycin]
CC50 at 5 days [2]: 150 ± 10 nM
CC50 at 14 days [3]: 360 ± 60 nM
selectivity of effect on COX-1 versus SDH-A and ATP levels [4]: nonselective inhibitive effects on the COX-1, SDH-A, and ATP levels
CC50 at 5 days [5]: 120 ± 10 nM
CC50 at 14 days [6]: 270 ± 40 nM
CC50 at 5 days [7]: 520 ± 190 nM
CC50 at 5 days [8]: 330 ± 50 nM
CC50 at 3 days [9]: 490 ± 110 nM
selectivity of effect on spare respiratory capacity versus DNA and ATP levels [10]: nonselective inhibition of the spare respiratory capacity, DNA, and ATP levels
CC50 at 5 days [11]: 1000 ± 200 nM
CC50 at 5 days [12]: 220 ± 70 nM
CC50 at 5 days [13]: 4500 ± 1900 nM
CC50 at 5 days [14]: 1900 ± 800 nM
CC50 at 5 days [15]: 160 ± 60 nM
CC50 at 5 days [16]: 240 ± 50 nM
CC50 at 5 days [17]: 650 ± 180 nM
